This is an account of results in patent US20260174714A1, “NONHUMAN ANIMAL AND USE THEREOF” (THE JIKEI UNIVERSITY, priority 2022, published 2026).

Each structure is given as a SMILES string.

One series concerns regenerated nephrons. Particulars: mouse, in vivo, ip. The text has this: (§1) This method has a low accuracy in the cell injection site and a low survival rate of the host fetus, and thus, a simpler method is required to establish the method as an evaluation model. Therefore, the collected cells derived from the EGFP mouse embryonic E14 kidney were directly injected into a subcapsular region of the kidney of a neonatal mouse aged 0 to 1 day after birth (see FIG. 3) by utilizing a fact that nephron precursor cells remain until about 3 days after birth and the renal development continues in mice (see Hartman H A, Lai H L. Cessation of renal morphogenesis in mice. 2007; 310(2): 379-87).
(§2) Cisplatin was intraperitoneally administered to a mouse individual having a chimeric kidney 2 weeks after transplantation, which was created in Experimental Example 1, and the regenerated nephrons were recovered 48 hours later and evaluated by immunofluorescence staining.
In addition, single-cell RNA sequencing was performed on the recovered sample.

The subject of series [1] is foreign proximal renal tubular cells. The conditions noted are these: mouse, in vivo, ip.
Description: as §1, §2

Series [2] has the same test system. Particulars: in vivo, ip. The text has this: In Experimental Example 1, instead of the collected cells derived from the EGFP mouse embryonic E14 kidney, GFP-expressing human nephron precursor cells were directly injected into a subcapsular region of the kidney of a neonatal mouse aged 0 to 1 day after birth. The foreign nephrons in the cell injection region 2 weeks after the transplantation were examined by immunostaining (see (A) of FIG. 9). As shown in (A) of FIG. 9, the formation of glomeruli and renal tubules derived from GFP-expressing human nephron precursor cells was confirmed. In addition, cisplatin was intraperitoneally administered to a mouse individual having a chimeric kidney 2 weeks after the transplantation of the GFP-expressing human nephron precursor cells, and the regenerated nephrons were recovered 48 hours later and evaluated by immunofluorescence staining.

Regarding `N.N.[Cl][Pt][Cl]` [cisplatin], the “expression of disorder-related genes other than Kim-1” value in the series with regenerated nephrons is “enhanced expression of disorder-related genes other than Kim-1 was also confirmed”. The “expression of Kim-1 in the foreign proximal renal tubular cells” value in series [1] was “dose-dependent expression of Kim-1 was confirmed”. In series [2], the “expression of human Kim-1 in the foreign proximal renal tubular cells” value is reported as “expression of human Kim-1 was confirmed”.
